These are literature values, as cited in US20120148662A1, “Formulation” (priority 2010, published 2012).

The conditions of data set [1]: dosed conventionally.

Regarding `CCC(CC)CC1(C(=O)Nc2ccccc2SC(=O)C(C)C)CCCCC1` [dalcetrapib, S-[2-([[1-(2-ethylbutyl)-cyclohexyl]-carbonyl]amino)phenyl]2-methylpropanethioate], the aqueous solubility result was “extremely low”. Further, the oral bioavailability result in data set [1] is reported as “low”.
